Results: patent US8435998B2, “Crystalline form of posaconazole” (Sandoz AG, priority 2008, dated 2013)
≈ marks a conversion by molar mass, not a printed value. Where “and” joins values, the source holds several entries; their conditions need not be identical. Equal values may be shown once. Blank lines part the entries; values can stand above or below the compound they belong to.

What was measured:
[1] = Specific surface area, BET method with nitrogen (NOVA 2000); type: physicochemical; details: for Specific Surface Area: BET, nitrogen, 77° K
From the text: The specific surface area of crystalline form IV of posaconazole as such, i.e. as obtained according to the herein described methods, is typically about 10-25 m^2/g±0.5 m^2/g, e.g. about 13-20 m^2/g±0.5 m^2/g, such as about 15-17 m^2/g±0.5 m^2/g, as measured according to the known Multi-Point-BET-method as herein described and as shown in Example 7. This specific surface area of crystalline form IV of posaconazole is about 10-fold larger when compared to that of known crystalline form I. It is known that the specific surface area between a solid and a liquid phase has a direct impact on the dissolution rate and thus on the bioavailability of the pharmaceutical ingredient as described e.g. by the equation by Nernst and Brunner as found in W. Nernst, Z. Phys. Chem. 47 (1904), pp. 52-55. […] Thus, crystalline form IV of posaconazole may advantageously be used as such, i.e. without being micronized, for preparing a pharmaceutical composition, e.g. a liquid suspension or dispersion as herein described—in contrast to known posaconazole forms which are micronized for use in such suspensions as e.g. described in WO 02/80678.
Specific surface area measurement was performed with the equipment NOVA 2000 as commercially available from Quantachrome Instruments using the BET method and Nitrogen as the absorbed gas at 77° K (i.e. −196.15° C.) as described e.g. by Medema J, Campagne A.: A Simple Method to Determine Cumulative Surface-Area Distributions of Porous Solids; Journal of Catalysis, Volume 8, Issue 2, pp. 120, 1967. Crystalline form IV of posaconazole was prepared according to Example 4. Crystalline form I was prepared by the method of example 3 described in U.S. Pat. No. 6,958,337.

[2] = Median particle size by laser diffraction (Malvern Mastersizer 2000S) in oral suspension; type: physicochemical; details: for Median particle size (d (0.5)-value): in suspension, laser diffraction after 5 min ultrasonic treatment
From the text: The median particle size of crystalline form IV of posaconazole when used as such, i.e. in a non-micronized form for preparing a pharmaceutical composition in the form of a liquid suspension or dispersion as herein described, has been determined in samples taken from such suspension. Said median particle size is typically about 0.1-0.2 μm±0.05 μm, e.g. 0.14-0.17 μm, such as 0.15 μm, when measured with known laser diffraction methods, e.g. determination of the particle size distribution (Malvern) according to the US-Pharmacopeia (USP) 32 (2009) method <429> and to the European Pharmacopeia (EP) 6 (2008) method 2.9.31. based on the diffraction of laser by particles within the measurement volume (for details see Example 8). In the present invention, the term median particle size is understood to mean the d(0.5) value as determined according to the herein described laser diffraction methods.
Crystalline form IV as obtained by Example 4 was used to prepare 25 ml of a suspension as follows:
The suspension was prepared as follows: 40% of the final amount of Polysorbat 80 and 40% of the final amount of simethicone were mixed and dissolved and/or dispersed in about 12% of the final amount of purified water and homogenized with Ultra Turrax (30 seconds; 27,000 rpm). Subsequently, 1 g of the form IV of posaconazole, i.e. in its non-micronized form, were suspended or dispersed in this mixture under homogenization by Ultra Turrax (27,000 rpm, 2 minutes). The remaining 60% of Polysorbat 80 and of simethicone and 32% of the final amount of the purified water were added and mixed followed by the addition of sodium benzoate, sodium citrate dihydrate and citric acid monohydrate. After further mixing, xanthan gum was added to the mixture under stirring, followed by a 30 minutes phase of hydratization without mixing. Subsequently, glycerol and liquid glucose as well as titanium dioxide and the remaining portion of 56% of the final amount of purified water were added under mixing with a suitable homogenizer until a uniform suspension was obtained.
25 ml of a similar suspension were prepared analogously using non-micronized crystalline form I of posaconazole which was prepared by the method of example 3 described in U.S. Pat. No. 6,958,337.
Additionally, NOXAFIL® oral suspension (40 mg/ml) as commercially available from Medizone Germany GMBH (US product) was used to determine the particle size distribution of micronized form I of posaconazole which was contained in this known suspension.
The particle size distribution (Malvern) was measured according to the USP 32 (2009) method <429> and EP 6 (2008) method 2.9.31. based on the diffraction of laser by particles using a Mastersizer 2000S liquid dispersion system. The particle size measurement was started after ultrasonic treatment of the sample for 5 min.

[3] = Dissolution of suspensions, USP 32 method <711>, apparatus II (Paddle); type: physicochemical; details: 25 rpm, 0.3% SLS aqueous solution
Protocol: The liquid suspensions containing non-micronized crystalline form IV or non-micronized crystalline form I as well as the NOXAFIL® oral suspension containing micronized crystalline form I described in Example 8 were tested for their dissolution behaviour.
Dissolution was tested according to USP 32 (2009) method <711> (USP apparatus II (Paddle); 25 rpm; dissolution medium: 0.3% SLS aqueous solution). Posaconazole concentrations were determined with an online photometer (UV absorption at 260 nm).
The results are shown in Table 4 below wherein values are the amount of posaconazole dissolved in %, and in more detail in FIG. 6 wherein the amount of posaconazole dissolved in % is plotted versus time in minutes.

[4] = on storage as micronised powder, during manufacture or as formulated in the finished product; cited from earlier work
[5] = Moisture sorption isotherm (SPS-11); type: physicochemical; details: 90% relative humidity, 25° C.
Protocol: The moisture sorption isotherm was recorded with a SPS-11 moisture sorption analyzer (MD Mess-technik, Ulm, D). The measurement cycle was started at 0% relative humidity (RH), increased in 10% steps up to 90% RH and in a 5% step up to 95% RH. The equilibrium condition for each step was set to a constant mass±0.003% over 49 min. The temperature was 25±0.1° C.
The water content of the obtained crystalline form IV was 2.43%. […] The maximum water content peaks at 3.7% at 90% relative humidity, which corresponds to a water mol ratio of 1.5 (FIG. 4).

[6] = Polymorphic stability suspended in water and stirred; type: physicochemical; details: suspended in water and stirred for 1 week at ambient temperature
[7] = Storage stability of the solid form (degradation or polymorphic conversion by HPLC, IR or XRPD); type: physicochemical
Protocol: Crystalline form IV is stable under storage conditions which are typical for pharmaceutical compositions and is thus suitable for the preparation of medicaments. Typical storage conditions are, for example, storage at ambient temperature, such as about 20° C. to about 30° C., for several months (e.g., for at least 5 months, preferably at least 12 months, more preferably at least 24 months) in a closed vial.
In experiments crystalline form IV was stable during storage for 63 days at ambient temperature. Even when stored for 4 weeks at 40° C., crystalline form IV was stable.
In this context, “stable” means that neither degradation nor polymorphic conversion to another polymorphic form of crystalline form IV can be detected, for example by HPLC, IR or XRPD analysis as defined herein.

[8] = Equilibrium solubility method in water; type: physicochemical
Protocol: The solubility of crystalline form IV was determined by the equilibrium solubility method. A saturated solution of form IV, obtained by stirring 250 mg form IV in 6 ml water overnight, was prepared. The sample was filtered through a 0.45 μm membrane filter and the concentration of form IV in the filtrate was measured using a Perkin Elmer Lambda 35 UV/VIS spectrophotometer (λ=260 nm).

[9] = Stability of form IV in an aqueous pharmaceutical composition (XRPD); type: physicochemical; details: aqueous pharmaceutical suspension stirred at ambient temperature for 1 week
Protocol: The stability of form IV in an aqueous pharmaceutical composition was investigated. 240 mg form IV were suspended in a 4 ml aqueous suspension consisting of a mixture of 19 mg sodium benzoate, 3 mg citric acid, 19 mg xanthan gum, 60 mg Polysorbat 80, 600 mg glycerine and 2 g liquid glucose. The suspension was stirred at ambient temperature for 1 week.

[10] = WO 99/18097; cited from earlier work
[11] = cited from earlier work
[12] = listed as crystalline form IV of posaconazole

Specific Surface Area ([1]; listed as Crystalline Form I of posaconazole): 1.5 m^2/g and 1.6 m^2/g | Median particle size (d (0.5)-value) ([2]; listed as Crystalline Form I (non-micronized)): 12.88 μm | amount of posaconazole dissolved ([3]; 3 min, listed as Crystalline Form I non-micronized): 29% | amount of posaconazole dissolved ([3]; 25 min, listed as Crystalline Form I non-micronized): 61%
Structure (SMILES): CC[C@@H]([C@H](C)O)n1ncn(-c2ccc(N3CCN(c4ccc(OC[C@@H]5CO[C@@](Cn6cncn6)(c6ccc(F)cc6F)C5)cc4)CC3)cc2)c1=O [Crystalline Form I, posaconazole]
polymorphic transition [4]: no evidence of polymorphic transition

Specific Surface Area ([1]; listed as Crystalline Form IV of posaconazole): 15.5 m^2/g and 15.7 m^2/g | Specific Surface Area [1, 12]: 10-25 m^2/g | specific surface area relative to crystalline form I ([1]; larger than form I): about 10 fold | maximum water content (moisture sorption) [5]: 3.7% | water mol ratio at maximum water content [5]: 1.5 | stability during storage ([7]; 4 weeks at 40° C.): stable | stability during storage ([7]; 63 days at ambient temperature): stable | Median particle size (d (0.5)-value) ([2]; listed as Crystalline Form IV (non-micronized)): 0.15 μm | Median particle size (d (0.5)-value) [2, 12]: 0.1-0.2 μm | median particle size relative to micronized form I ([2]; smaller than micronized form I): about 10 fold | median particle size relative to non-micronized form I ([2]; smaller than non-micronized form I): about 90 fold | solubility ([8]; thermodynamic from solid, saturated solution in water, stirred overnight, 0.45 μm filtered, UV 260 nm): 2.1 µg/mL (≈ 3 µM) | solubility compared with form I ([8]; water, equilibrium solubility): more than two times higher | stability in aqueous suspension (XRPD) [9]: remained stable | amount of posaconazole dissolved ([3]; 3 min, listed as Crystalline Form IV non-micronized): 82% | amount of posaconazole dissolved ([3]; 25 min, listed as Crystalline Form IV non-micronized): 100%
Structure (SMILES): CC[C@@H]([C@H](C)O)n1ncn(-c2ccc(N3CCN(c4ccc(OC[C@@H]5CO[C@@](Cn6cncn6)(c6ccc(F)cc6F)C5)cc4)CC3)cc2)c1=O [Crystalline Form IV, 2,5-anhydro-1,3,4-trideoxy-2-C-(2,4-difluorophenyl)-4-[[4-[4-[4-[1-[(1S,2S)-1-ethyl-2-hydroxypropyl]-1,5-dihydro-5-oxo-4H-1,2,4-triazol-4-yl]phenyl]-1-piperazinyl]phenoxy]methyl]-1-(1H-1,2,4-triazol-1-yl)-D-threo-pentitol]
transformation into another form [6]: not susceptible to transformation into another form

Structure (SMILES): CC[C@@H]([C@H](C)O)n1ncn(-c2ccc(N3CCN(c4ccc(OC[C@@H]5CO[C@@](Cn6cncn6)(c6ccc(F)cc6F)C5)cc4)CC3)cc2)c1=O [Crystalline form II, posaconazole]
stability under the conditions investigated [10]: unstable

Structure (SMILES): CC[C@@H]([C@H](C)O)n1ncn(-c2ccc(N3CCN(c4ccc(OC[C@@H]5CO[C@@](Cn6cncn6)(c6ccc(F)cc6F)C5)cc4)CC3)cc2)c1=O [posaconazole, 2,5-anhydro-1,3,4-trideoxy-2-C-(2,4-difluorophenyl)-4-[[4-[4-[4-[1-[(1S,2S)-1-ethyl-2-hydroxypropyl]-1,5-dihydro-5-oxo-4H-1,2,4-triazol-4-yl]phenyl]-1-piperazinyl]phenoxy]methyl]-1-(1H-1,2,4-triazol-1-yl)-D-threo-pentitol]
log P [11]: > 3
